Experimental data published in ChEMBL document CHEMBL3272309, “Potential central nervous system antitumor agents. Aziridinylbenzoquinones. 1” (J Med Chem, 1976).

How the values were obtained:
Type in all cases: functional
L1210 [1] = assay: Antitumor activity against mouse L1210 cells allografted in ip dosed mouse assessed as optimum dose administered qd on day 1, 5 and 9
L1210 [2] = assay: Antitumor activity against mouse L1210 cells allografted in mouse assessed as change in body weight at 6.25 mg/kg, ip qd administered from day 1 to 9 post intracerebral tumor-implantation measured on day 5 relative to control; settings: route intraperitoneal
[3] = Antitumor activity against mouse ependymoblastoma cells allografted in mouse assessed as change in body weight at 0.5 mg/kg, ip qd administered from day 1 to 5 post intracerebral tumor-implantation measured on day 5 relative to control; settings: route intraperitoneal
B16 = assay: Antitumor activity against mouse B16 cells allografted in mouse assessed as change in body weight at 1.56 mg/kg, ip qd administered from day 1 to 9 post ip tumor-implantation measured on day 5 relative to control; settings: route intraperitoneal
P388 [4] = assay: Antitumor activity against mouse P388 cells allografted in mouse assessed as change in body weight at 1.56 mg/kg, ip qd administered from day 1 to 9 post ip tumor-implantation measured on day 5 relative to control; settings: route intraperitoneal
P388 [5] = assay: Antitumor activity against mouse P388 cells allografted in mouse assessed as change in body weight at 6.25 mg/kg, ip qd administered from day 1 to 9 post ip tumor-implantation measured on day 5 relative to control; settings: route intraperitoneal
L1210 [6] = assay: Antitumor activity against mouse L1210 cells allografted in mouse assessed as mouse survival at 6.25 mg/kg, ip qd administered from day 1 to 9 post ip tumor-implantation relative to control; settings: route intraperitoneal
[7] = Antitumor activity against mouse ependymoblastoma cells allografted in mouse assessed as change in body weight at 8 mg/kg, ip qd administered from day 1 to 5 post intracerebral tumor-implantation measured on day 5 relative to control; settings: route intraperitoneal

## CCOC(=O)NC1=C(N2CC2)C(=O)C(NC(=O)OCC)=C(N2CC2)C1=O [DIAZIQUONE]
L1210 [1]
  Activity: 6.25 mg/kg
L1210 [2]
  Activity: -2.8 g
[3]
  Activity: -1.8 g
B16
  Activity: -3.6 g
P388 [4]
  Activity: -4 g
P388 [5]
  Activity: -6.1 g
L1210 [6]
  T/C: 127%
[7]
  Activity: -5 g
